Activity calls are given as the source filed them.
Tests used:
HepG2 [1] = assay: Antiproliferative activity against human HepG2 cells assessed as reduction in cell viability measured for 180 hrs by RT-CES analysis; format: functional, cell-based; details: dose 2.5-10 µM
Mahlavu [2] = assay: Cell cycle arrest in human Mahlavu cells assessed as increase in accumulation of cells at G0/G1 phase at 5 uM measured after 48 hrs by propidium iodide staining based flow cytometric analysis; format: functional
Huh-7 [3] = assay: Induction of apoptosis in human Huh-7 cells assessed as nuclear fragmentation measured after 48 hrs by Hoechst33258 staining based inverted fluorescent microscopic method; format: functional, cell-based
SNU-475 [4] = assay: Induction of apoptosis in human SNU-475 cells assessed as nuclear fragmentation measured after 48 hrs by Hoechst33258 staining based inverted fluorescent microscopic method; format: functional, cell-based
[5] = molecular target: T1, Serine/threonine-protein kinase AKT (Homo sapiens) (UniProt P31751+Q9Y243+P31749); assay: Inhibition of Akt phosphorylation at Ser473 residue in human Huh-7 cells at 5 uM measured after 72 hrs by Western blot analysis; format: cell-based
Mahlavu [6] = assay: Inhibition of cell stemness in human Mahlavu cells assessed as decrease in OCT4 level at 10 uM measured after 72 hrs by flow cytometry analysis; format: functional, cell-based
Huh-7 [7] = assay: Inhibition of cell stemness in human Huh-7 cells assessed as decrease in OCT4 mRNA level at 10 uM measured after 72 hrs by RT-qPCR analysis; format: functional, cell-based
Huh-7 [8] = assay: Inhibition of cell stemness in human Huh-7 cells assessed as CD133+/EpCAM+ expression at 10 uM measured after 72 hrs by flow cytometry analysis (reference value: 29.92%); format: functional; design: scale not given: the % may be the effect or the level left
SNU-475 [9] = assay: Induction of apoptosis in human SNU-475 cells assessed as apoptotic body formation measured after 48 hrs by Hoechst33258 staining based inverted fluorescent microscopic method; format: functional, cell-based
Huh-7 [10] = assay: Inhibition of cell stemness in human Huh-7 cells assessed as reduction in size of tumor spheres at 10 uM incubated for 72 hrs followed by incubation in sphere formation medium for 7 days by microscopic analysis; format: functional, cell-based; details: time 10.0 day
Huh-7 [11] = assay: Activation of p53 harboring C220T mutant in human Huh-7 cells at 5 uM measured after 72 hrs by Western blot analysis; format: cell-based
[12] = molecular target: T1, Serine/threonine-protein kinase AKT (Homo sapiens); assay: Inhibition of Akt phosphorylation at Ser473 residue in human Mahlavu cells at 5 uM measured after 72 hrs by Western blot analysis; format: cell-based
Mahlavu [13] = assay: Antiproliferative activity against human Mahlavu cells assessed as reduction in cell viability measured for 180 hrs by RT-CES analysis; format: functional, cell-based; details: dose 2.5-10 µM
Huh-7 [14] = assay: Inhibition of cell stemness in human Huh-7 cells assessed as decrease in NANOG level at 10 uM measured after 72 hrs by flow cytometry analysis; format: functional, cell-based
[15] = molecular target: T1, Serine/threonine-protein kinase AKT (Homo sapiens); assay: Inhibition of Akt phosphorylation at Ser473 residue in human HepG2 cells at 5 uM measured after 72 hrs by Western blot analysis; format: cell-based
Huh-7 [16] = assay: Antiproliferative activity against human Huh-7 cells assessed as reduction in cell viability measured after 72 hrs by SRB assay; format: functional, cell-based; details: Huh-7, 72 h
Huh-7 [17] = assay: Induction of apoptosis in human Huh-7 cells assessed as apoptotic body formation measured after 48 hrs by Hoechst33258 staining based inverted fluorescent microscopic method; format: functional, cell-based
MCF7 = assay: Antiproliferative activity against human MCF7 cells assessed as reduction in cell viability measured after 72 hrs by SRB assay; format: functional, cell-based; details: MCF7, 72 h
HepG2 [18] = assay: Induction of apoptosis in human HepG2 cells assessed as apoptotic body formation measured after 48 hrs by Hoechst33258 staining based inverted fluorescent microscopic method; format: functional, cell-based
Huh-7 [19] = assay: Cell cycle arrest in human Huh-7 cells assessed as increase in accumulation of cells at G2/M phase at 5 uM measured after 48 hrs by propidium iodide staining based flow cytometric analysis; format: functional
Huh-7 [20] = assay: Induction of apoptosis in human Huh-7 cells at 5 uM measured after 72 hrs by Annexin V-FITC/propidium iodide staining based flow cytometric analysis; format: functional, cell-based
SNU-475 [21] = assay: Induction of apoptosis in human SNU-475 cells assessed as chromatin condensation measured after 48 hrs by Hoechst33258 staining based inverted fluorescent microscopic method; format: functional, cell-based
Huh-7 [22] = assay: Inhibition of cell stemness in human Huh-7 cells assessed as decrease in OCT4 level at 10 uM measured after 72 hrs by flow cytometry analysis; format: functional, cell-based
SNU-475 [23] = assay: Cell cycle arrest in human SNU-475 cells assessed as increase in accumulation of cells at S phase at 5 uM measured after 48 hrs by propidium iodide staining based flow cytometric analysis; format: functional
[24] = molecular target: T2, Mitogen-activated protein kinase; ERK1/ERK2 (Homo sapiens) (UniProt P27361+P28482); assay: Downregulation of ERK1/2 phosphorylation at T202/Y204 residue in human HepG2 cells at 5 uM measured after 72 hrs by Western blot analysis; format: cell-based
Mahlavu [25] = assay: Activation of p53 harboring G249T mutant in human Mahlavu cells assessed as upregulation of p21 protein expression at 5 uM incubated for 72 hrs by western blot analysis; format: cell-based
Mahlavu [26] = assay: Activation of p53 harboring G249T mutant in human Mahlavu cells assessed as upregulation of p53 acetylation at Lys382 residue at 5 uM incubated for 72 hrs by western blot analysis; format: cell-based; details: filed as activator
Huh-7 [27] = assay: Inhibition of cell stemness in human Huh-7 cells assessed as reduction in tumor spheres count at 10 uM incubated for 72 hrs followed by incubation in sphere formation medium for 14 days by microscopic analysis; format: functional, cell-based; details: time 17.0 day
HepG2 [28] = assay: Induction of apoptosis in human HepG2 cells assessed as chromatin condensation measured after 48 hrs by Hoechst33258 staining based inverted fluorescent microscopic method; format: functional, cell-based
Mahlavu [29] = assay: Cell cycle arrest in human Mahlavu cells assessed as increase in accumulation of cells at subG1 phase at 5 uM measured after 48 hrs by propidium iodide staining based flow cytometric analysis; format: functional
HepG2 [30] = assay: Induction of apoptosis in human HepG2 cells assessed as nuclear fragmentation measured after 48 hrs by Hoechst33258 staining based inverted fluorescent microscopic method; format: functional, cell-based
[31] = molecular target: T2, Mitogen-activated protein kinase; ERK1/ERK2 (Homo sapiens); assay: Downregulation of ERK1/2 phosphorylation at T202/Y204 residue in human Huh-7 cells at 5 uM measured after 72 hrs by Western blot analysis; format: cell-based
Mahlavu [32] = assay: Induction of apoptosis in human Mahlavu cells assessed as chromatin condensation measured after 48 hrs by Hoechst33258 staining based inverted fluorescent microscopic method; format: functional, cell-based
Mahlavu [33] = assay: Antiproliferative activity against human Mahlavu cells assessed as reduction in cell viability measured after 90 hrs by RT-CES analysis; format: functional, cell-based
SNU-475 [34] = assay: Induction of apoptosis in human SNU-475 cells at 5 uM measured after 72 hrs by Annexin V-FITC/propidium iodide staining based flow cytometric analysis; format: functional, cell-based
SNU-475 [35] = assay: Antiproliferative activity against human SNU-475 cells assessed as reduction in cell viability measured after 40 to 130 hrs by RT-CES analysis; format: functional, cell-based; details: time 40-130 hrs
SNU-475 [36] = assay: Antiproliferative activity against human SNU-475 cells assessed as reduction in cell viability measured for 180 hrs by RT-CES analysis; format: functional, cell-based; details: dose 2.5-10 µM
Mahlavu [37] = assay: Induction of apoptosis in human Mahlavu cells assessed as nuclear fragmentation measured after 48 hrs by Hoechst33258 staining based inverted fluorescent microscopic method; format: functional, cell-based

T2 sequence (P27361 whole entry, looked up): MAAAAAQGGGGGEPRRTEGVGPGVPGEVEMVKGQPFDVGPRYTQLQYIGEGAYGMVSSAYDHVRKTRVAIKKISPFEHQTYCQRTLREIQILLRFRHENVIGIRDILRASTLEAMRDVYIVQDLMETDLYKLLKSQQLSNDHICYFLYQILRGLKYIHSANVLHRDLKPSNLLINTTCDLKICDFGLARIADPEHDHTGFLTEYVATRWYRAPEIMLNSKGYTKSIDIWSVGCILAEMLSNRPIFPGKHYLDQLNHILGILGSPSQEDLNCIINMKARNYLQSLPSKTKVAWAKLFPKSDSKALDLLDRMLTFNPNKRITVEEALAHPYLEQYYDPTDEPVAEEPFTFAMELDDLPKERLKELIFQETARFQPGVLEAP
T2 sequence (P28482 whole entry, looked up): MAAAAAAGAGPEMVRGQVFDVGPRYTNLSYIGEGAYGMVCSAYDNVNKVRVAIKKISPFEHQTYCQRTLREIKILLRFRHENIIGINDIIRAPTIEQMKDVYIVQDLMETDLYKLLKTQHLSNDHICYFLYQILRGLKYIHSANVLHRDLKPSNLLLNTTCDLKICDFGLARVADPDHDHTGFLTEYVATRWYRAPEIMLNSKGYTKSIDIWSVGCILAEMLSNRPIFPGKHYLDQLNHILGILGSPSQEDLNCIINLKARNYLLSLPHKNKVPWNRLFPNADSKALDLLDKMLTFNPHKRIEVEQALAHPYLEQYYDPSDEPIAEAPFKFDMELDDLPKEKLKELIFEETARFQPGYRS
T1 sequence (P31749 whole entry, looked up): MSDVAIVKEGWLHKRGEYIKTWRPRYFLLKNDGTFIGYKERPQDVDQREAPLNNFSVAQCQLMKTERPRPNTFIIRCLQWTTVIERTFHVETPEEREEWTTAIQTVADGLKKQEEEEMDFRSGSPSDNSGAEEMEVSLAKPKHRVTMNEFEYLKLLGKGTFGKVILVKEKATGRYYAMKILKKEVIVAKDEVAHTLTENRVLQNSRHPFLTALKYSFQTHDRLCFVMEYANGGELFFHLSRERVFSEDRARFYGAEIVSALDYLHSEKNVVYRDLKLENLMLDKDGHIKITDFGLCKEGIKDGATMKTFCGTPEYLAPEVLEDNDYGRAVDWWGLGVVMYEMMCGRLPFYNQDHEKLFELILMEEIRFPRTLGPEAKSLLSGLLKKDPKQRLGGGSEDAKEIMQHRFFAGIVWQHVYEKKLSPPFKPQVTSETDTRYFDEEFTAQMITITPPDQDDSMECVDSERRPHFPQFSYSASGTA
T1 sequence (P31751 whole entry, looked up): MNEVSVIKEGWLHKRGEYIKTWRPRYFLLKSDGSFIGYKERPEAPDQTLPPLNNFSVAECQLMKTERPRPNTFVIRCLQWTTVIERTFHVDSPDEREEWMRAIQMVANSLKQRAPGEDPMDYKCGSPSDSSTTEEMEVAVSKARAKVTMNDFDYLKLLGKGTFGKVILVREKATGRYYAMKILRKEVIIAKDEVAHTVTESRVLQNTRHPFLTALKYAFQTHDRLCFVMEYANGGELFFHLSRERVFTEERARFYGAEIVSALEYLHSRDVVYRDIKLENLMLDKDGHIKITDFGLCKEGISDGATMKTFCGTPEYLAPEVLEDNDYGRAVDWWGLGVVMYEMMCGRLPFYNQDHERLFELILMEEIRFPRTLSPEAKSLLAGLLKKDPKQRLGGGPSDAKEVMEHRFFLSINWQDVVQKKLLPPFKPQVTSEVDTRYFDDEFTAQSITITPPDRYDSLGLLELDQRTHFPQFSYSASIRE
T1 sequence (Q9Y243 whole entry, looked up): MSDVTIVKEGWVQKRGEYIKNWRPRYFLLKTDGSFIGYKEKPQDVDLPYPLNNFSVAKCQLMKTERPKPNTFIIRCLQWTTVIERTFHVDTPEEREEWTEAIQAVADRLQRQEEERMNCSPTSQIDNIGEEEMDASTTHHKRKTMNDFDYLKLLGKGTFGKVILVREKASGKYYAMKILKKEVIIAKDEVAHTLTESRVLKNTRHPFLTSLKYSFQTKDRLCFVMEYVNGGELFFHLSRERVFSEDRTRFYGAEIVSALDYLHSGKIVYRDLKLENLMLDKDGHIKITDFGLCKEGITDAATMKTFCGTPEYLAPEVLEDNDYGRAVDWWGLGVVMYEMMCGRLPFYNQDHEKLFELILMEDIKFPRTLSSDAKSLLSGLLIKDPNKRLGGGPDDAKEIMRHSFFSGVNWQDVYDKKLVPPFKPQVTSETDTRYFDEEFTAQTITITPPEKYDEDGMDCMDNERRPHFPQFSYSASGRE

N#Cc1cccc(COc2ccc(-c3cc(CN4CCN(Cc5ccc(C(F)(F)F)cc5)CC4)no3)cc2F)c1
inactive: inhibition [5] | Activity (Huh-7 [11]) | inhibition [15] | inhibition (Huh-7 [22]) | Activity (Mahlavu [25])
13.12%: Activity (Huh-7 [8])
90 nM: IC50 (Huh-7 [16])
380 nM: IC50 (MCF7)
active: Activity (HepG2 [1]) Dose-Dependent Effect | Activity (Mahlavu [2]) | Activity (Huh-7 [3]) | Activity (SNU-475 [4]) | inhibition (Mahlavu [6]) | inhibition (Huh-7 [7]) | Activity (SNU-475 [9]) | inhibition (Huh-7 [10]) | inhibition [12] | Activity (Mahlavu [13]) Dose-Dependent Effect | inhibition (Huh-7 [14]) | Activity (Huh-7 [17]) | Activity (HepG2 [18]) | Activity (Huh-7 [19]) | Activity (Huh-7 [20]) | Activity (SNU-475 [21]) | Activity (SNU-475 [23]) | inhibition [24] | Activity (Mahlavu [26]) | inhibition (Huh-7 [27]) | Activity (HepG2 [28]) | Activity (Mahlavu [29]) | Activity (HepG2 [30]) | inhibition [31] | Activity (Mahlavu [32]) | Activity (Mahlavu [33]) | Activity (SNU-475 [34]) | Activity (SNU-475 [35]) | Activity (SNU-475 [36]) Dose-Dependent Effect | Activity (Mahlavu [37])

FC(F)(F)c1ccc(CN2CCN(Cc3cc(-c4ccc(OCc5ccccc5)cc4)on3)CC2)cc1
23.68%: Activity (Huh-7 [8])
2900 nM: IC50 (MCF7)
inactive: inhibition [5] | Activity (Huh-7 [11]) | inhibition [15] | inhibition (Huh-7 [22]) | Activity (Mahlavu [25])
1700 nM: IC50 (Huh-7 [16])
active: Activity (HepG2 [1]) Dose-Dependent Effect | Activity (Mahlavu [2]) | Activity (Huh-7 [3]) | Activity (SNU-475 [4]) | inhibition (Mahlavu [6]) | inhibition (Huh-7 [7]) | Activity (SNU-475 [9]) | inhibition (Huh-7 [10]) | inhibition [12] | Activity (Mahlavu [13]) Dose-Dependent Effect | inhibition (Huh-7 [14]) | Activity (Huh-7 [17]) | Activity (HepG2 [18]) | Activity (Huh-7 [19]) | Activity (Huh-7 [20]) | Activity (SNU-475 [21]) | Activity (SNU-475 [23]) | inhibition [24] | Activity (Mahlavu [26]) | inhibition (Huh-7 [27]) | Activity (HepG2 [28]) | Activity (Mahlavu [29]) | Activity (HepG2 [30]) | inhibition [31] | Activity (Mahlavu [32]) | Activity (Mahlavu [33]) | Activity (SNU-475 [34]) | Activity (SNU-475 [35]) | Activity (SNU-475 [36]) Dose-Dependent Effect | Activity (Mahlavu [37])

From ChEMBL document CHEMBL4837206, “Synthesis and biological evaluation of novel isoxazole-piperazine hybrids as potential anti-cancer agents with inhibitory effect on liver cancer stem cells” (Eur J Med Chem, 2021)
